Measured values from the supplement of paper PMC4862054.

Assays:
Settings in all cases: incubation time: 72 h
[1] = test system: DU-4475; assay: normalised response (% of control), CellTiter-Glo; higher = more viable cells (100 = DMSO, 0 = benzethonium chloride kill control)
In short: (§1)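 Plates were normalised with 0.1 % DMSO as 100 and a positive kill control as 0. Breast cancer cell lines in 20 µl suspension had been seeded into 384-well plates with compound at 5 concentrations in 10-fold steps over a compound-specific 10,000-fold range, incubated 72 h, and read for CellTox Green fluorescence (485/520 nm) followed by CellTiter-Glo luminescence. Each value is the normalised signal at a single concentration.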

[2] = test system: HCC1599; assay: as above
In short: as §1

[3] = test system: HCC1937; assay: as above
In short: as §1

[4] = test system: MFM-223; assay: as above
In short: as §1

[5] = test system: MDA-MB-453; assay: as above
In short: as §1

[6] = test system: CAL-148; assay: as above
In short: as §1

[7] = test system: SK-BR-3; assay: as above
In short: as §1

[8] = test system: CAL-85-1; assay: as above
In short: as §1

[9] = test system: MCF-10A; assay: as above
In short: as §1

[10] = test system: BT-474; assay: as above
In short: as §1

[11] = test system: CAL-51; assay: as above
In short: as §1

[12] = test system: MDA-MB-436; assay: as above
In short: as §1

[13] = test system: Hs578T; assay: as above
In short: as §1

[14] = test system: BT-549; assay: as above
In short: as §1

[15] = test system: MDA-MB-468; assay: as above
In short: as §1

[16] = test system: CAL-120; assay: as above
In short: as §1

[17] = test system: HDQ-P1; assay: as above
In short: as §1

[18] = test system: HCC1143; assay: as above
In short: as §1

[19] = test system: MDA-MB-231; assay: as above
In short: as §1

[20] = test system: DU-4475; assay: normalised response (% of control), CellTox Green; higher = less cell death (100 = DMSO, 0 = benzethonium chloride kill control)
In short: as §1

[21] = test system: HCC1599; assay: as above
In short: as §1

[22] = test system: HCC1937; assay: as above
In short: as §1

[23] = test system: MFM-223; assay: as above
In short: as §1

[24] = test system: MDA-MB-453; assay: as above
In short: as §1

[25] = test system: CAL-148; assay: as above
In short: as §1

[26] = test system: CAL-85-1; assay: as above
In short: as §1

[27] = test system: MCF-10A; assay: as above
In short: as §1

[28] = test system: BT-474; assay: as above
In short: as §1

[29] = test system: CAL-51; assay: as above
In short: as §1

[30] = test system: MDA-MB-436; assay: as above
In short: as §1

[31] = test system: Hs578T; assay: as above
In short: as §1

[32] = test system: BT-549; assay: as above
In short: as §1

[33] = test system: MDA-MB-468; assay: as above
In short: as §1

[34] = test system: CAL-120; assay: as above
In short: as §1

[35] = test system: HDQ-P1; assay: as above
In short: as §1

[36] = test system: HCC1143; assay: as above
In short: as §1

[37] = test system: MDA-MB-231; assay: as above
In short: as §1

Structure (SMILES)	normalised response [1]	normalised response [2]	normalised response [3]	normalised response [4]	normalised response [5]	normalised response [6]	normalised response [7]	normalised response [8]	normalised response [9]	normalised response [10]	normalised response [11]	normalised response [12]	normalised response [13]	normalised response [14]	normalised response [15]	normalised response [16]	normalised response [17]	normalised response [18]	normalised response [19]	normalised response [20]	normalised response [21]	normalised response [22]	normalised response [23]	normalised response [24]	normalised response [25]	normalised response [26]	normalised response [27]	normalised response [28]	normalised response [29]	normalised response [30]	normalised response [31]	normalised response [32]	normalised response [33]	normalised response [34]	normalised response [35]	normalised response [36]	normalised response [37]
CC(C)NC[C@@H](C(=O)N1CCN(c2ncnc3c2[C@H](C)C[C@H]3O)CC1)c1ccc(Cl)cc1 [GDC-0068] (100 nM)	98.8%	93.9%	90.9%	68.4%	84.2%	62.8%	95.1%	98.3%	111%	102%	80%	97.3%	102%	94.2%	84%	104%	89.2%	100%	104%	102%	94.8%	104%	102%	107%	82.4%	108%	106%	96.9%	106%	85%	97.8%	98.9%	125%	104%	87%	93.9%	97.8%
CCCc1cc(C)[nH]c(=O)c1CNC(=O)c1cc(-c2ccnc(N3CCN(C)CC3)c2)cc2c1cnn2C(C)C [GSK343] (100 nM)	92.5%	82.2%	94.9%	95.5%	90%	90.1%	88.1%	91.9%	92.7%	94.8%	67.6%	103%	95.5%	101%	84.6%	94.6%	96.5%	93.2%	97.2%	96%	96.3%	87.8%	99.6%	102%	101%	106%	85.8%	100%	62.8%	88.6%	51%	98.5%	161%	95.3%	105%	91.9%	100%
NC(=O)NO [Hydroxyurea] (1000 nM)	99.6%	97.1%	97.6%	105%	109%	104%	103%	110%	99.2%	92.1%	61.3%	98.5%	101%	105%	102%	102%	95.2%	105%	100%	102%	99.6%	109%	89.5%	96.4%	78.8%	115%	108%	101%	78.6%	101%	101%	105%	103%	101%	99.4%	67.2%	111%
COc1cc2c(cc1-c1c(C)noc1C)ncc1[nH]c(=O)n([C@H](C)c3ccccn3)c12 [I-BET151] (100 nM)	94.8%	100%	98.4%	103%	85.7%	110%	105%	104%	93.8%	89.6%	104%	96.4%	102%	98.8%	98.9%	99.9%	96%	117%	99.6%	103%	99.1%	102%	103%	98.3%	102%	107%	89.9%	101%	112%	64.7%	108%	93.2%	54%	97.4%	89.7%	91.9%	78.7%
CC(C)n1nc(-c2ccc3oc(N)nc3c2)c2c(N)ncnc21 [INK128] (10 nM)	86.8%	100%	82.9%	70.6%	73.8%	81.7%	55.6%	81.4%	89.1%	78.9%	76.8%	79.1%	85%	74.7%	81.2%	82.4%	75%	85.8%	81.8%	96.8%	95%	91.2%	99.9%	99.3%	96.6%	99.9%	108%	76.1%	99.6%	94.7%	108%	83.9%	104%	100%	78.1%	60.6%	99.5%
O=C(O)CC[C@H]1CC[C@@](c2cc(F)ccc2F)(S(=O)(=O)c2ccc(Cl)cc2)CC1 [MK-0752] (10 nM)	102%	91.8%	98.8%	106%	114%	108%	105%	97.2%	105%	105%	101%	99.7%	106%	93.8%	96.1%	106%	99.3%	105%	109%	108%	122%	125%	85.8%	107%	101%	102%	109%	104%	103%	99.9%	56.9%	92.4%	108%	107%	105%	120%	122%
